# Results: PMC11213733, “Computational approaches identify a transcriptomic fingerprint of drug-induced structural cardiotoxicity” (Cell Biology and Toxicology, 2024)
# Where two headings read alike, the source gives them in different places.
# Columns and labels:
# cardiac microtissues [1] = assay: Targeted qRT-PCR of ATAD3C, CDH13, IL6, PTX3, SLC7A5, UCHL1 in cardiac microtissues; format: cell-based, human; conditions: Sorafenib 3.74 µM, Sunitinib 3.53 µM, Dasatinib 10.8 µM; for activity at 3.53 µM: Homo sapiens, read-out: % of control
# Experimental: The experiment was performed with three technical replicates across 1-2 independent replicates.
# cardiac microtissues [2] = assay: ATP depletion (CellTiter Glo Luminescent Cell Viability Assay) in cardiac microtissues; format: cell-based, human; conditions: the concentration is the IC30 of ATP depletion, or cell death caused
# Experimental: Cellular ATP concentrations were also assessed using the CellTiter Glo® Luminescent Cell Viability Assay as per the manufacturer’s instructions (Promega).
# cardiac microtissues [3] = assay: Ingenuity Pathway Analysis over-representation of differentially expressed genes (activation Z-score); format: cell-based, human; conditions: 48hr high; Group 2
# [4] = ref FDA label, cited from earlier work
# cardiac microtissues [5] = assay: Transcriptomic profiling (mRNA-seq) and DESeq2 differential gene expression analysis in cardiac microtissues; conditions: absolute log2(Fold-Change) > 1, FDR p ≤ 0.05
smiles,measurement,setting,value
CCN(CC)CCNC(=O)c1c(C)[nH]c(/C=C2\C(=O)Nc3ccc(F)cc32)c1C [Sunitinib Malate],activity at 3.53 µM,"cardiac microtissues [1]; gene ATAD3C, Run 1",85.2%
same,activity at 3.53 µM,"cardiac microtissues [1]; gene CDH13, Run 1",81.7%
same,activity at 3.53 µM,"cardiac microtissues [1]; gene CDH13, Run 2",32.5%
same,activity at 3.53 µM,"cardiac microtissues [1]; gene IL6, Run 1",18.3%
same,activity at 3.53 µM,"cardiac microtissues [1]; gene IL6, Run 2",3.18%
same,activity at 3.53 µM,"cardiac microtissues [1]; gene PTX3, Run 1",46.8%
same,activity at 3.53 µM,"cardiac microtissues [1]; gene PTX3, Run 2",18.6%
same,activity at 3.53 µM,"cardiac microtissues [1]; gene SLC7A5, Run 1",87.2%
same,activity at 3.53 µM,"cardiac microtissues [1]; gene SLC7A5, Run 2",7.07%
same,activity at 3.53 µM,"cardiac microtissues [1]; gene UCHL1, Run 1",59.4%
same,activity at 3.53 µM,"cardiac microtissues [1]; gene UCHL1, Run 2",18.6%
same,"2^-ΔΔCt of Individual reps, Treated 1","cardiac microtissues [1]; gene ATAD3C, Run 1",0.6771
same,"2^-ΔΔCt of Individual reps, Treated 2","cardiac microtissues [1]; gene ATAD3C, Run 1",0.9498
same,"2^-ΔΔCt of Individual reps, Treated 3","cardiac microtissues [1]; gene ATAD3C, Run 1",0.9298
same,"Average 2^-ΔΔCt, Treated","cardiac microtissues [1]; gene ATAD3C, Run 1",0.8522
same,"2^-ΔΔCt of Individual reps, Treated 1","cardiac microtissues [1]; gene CDH13, Run 1",0.8001
same,"2^-ΔΔCt of Individual reps, Treated 2","cardiac microtissues [1]; gene CDH13, Run 1",0.8203
same,"2^-ΔΔCt of Individual reps, Treated 3","cardiac microtissues [1]; gene CDH13, Run 1",0.8552
same,"Average 2^-ΔΔCt, Treated","cardiac microtissues [1]; gene CDH13, Run 1",0.8252
same,"2^-ΔΔCt of Individual reps, Treated 1","cardiac microtissues [1]; gene CDH13, Run 2",0.3506
same,"2^-ΔΔCt of Individual reps, Treated 2","cardiac microtissues [1]; gene CDH13, Run 2",0.356
same,"2^-ΔΔCt of Individual reps, Treated 3","cardiac microtissues [1]; gene CDH13, Run 2",0.3542
same,"Average 2^-ΔΔCt, Treated","cardiac microtissues [1]; gene CDH13, Run 2",0.3536
same,"2^-ΔΔCt of Individual reps, Treated 1","cardiac microtissues [1]; gene IL6, Run 1",0.1962
same,"2^-ΔΔCt of Individual reps, Treated 2","cardiac microtissues [1]; gene IL6, Run 1",0.1722
same,"2^-ΔΔCt of Individual reps, Treated 3","cardiac microtissues [1]; gene IL6, Run 1",0.1837
same,"Average 2^-ΔΔCt, Treated","cardiac microtissues [1]; gene IL6, Run 1",0.184
same,"2^-ΔΔCt of Individual reps, Treated 1","cardiac microtissues [1]; gene IL6, Run 2",0.1296
same,"2^-ΔΔCt of Individual reps, Treated 2","cardiac microtissues [1]; gene IL6, Run 2",0.008
same,"2^-ΔΔCt of Individual reps, Treated 3","cardiac microtissues [1]; gene IL6, Run 2",0.00254
same,"Average 2^-ΔΔCt, Treated","cardiac microtissues [1]; gene IL6, Run 2",0.04671
same,"2^-ΔΔCt of Individual reps, Treated 1","cardiac microtissues [1]; gene PTX3, Run 1",0.5127
same,"2^-ΔΔCt of Individual reps, Treated 2","cardiac microtissues [1]; gene PTX3, Run 1",0.4851
same,"2^-ΔΔCt of Individual reps, Treated 3","cardiac microtissues [1]; gene PTX3, Run 1",0.4283
same,"Average 2^-ΔΔCt, Treated","cardiac microtissues [1]; gene PTX3, Run 1",0.4754
same,"2^-ΔΔCt of Individual reps, Treated 1","cardiac microtissues [1]; gene PTX3, Run 2",0.364
same,"2^-ΔΔCt of Individual reps, Treated 2","cardiac microtissues [1]; gene PTX3, Run 2",0.159
same,"2^-ΔΔCt of Individual reps, Treated 3","cardiac microtissues [1]; gene PTX3, Run 2",0.09578
same,"Average 2^-ΔΔCt, Treated","cardiac microtissues [1]; gene PTX3, Run 2",0.2063
same,"2^-ΔΔCt of Individual reps, Treated 1","cardiac microtissues [1]; gene SLC7A5, Run 1",0.9373
same,"2^-ΔΔCt of Individual reps, Treated 2","cardiac microtissues [1]; gene SLC7A5, Run 1",0.8504
same,"2^-ΔΔCt of Individual reps, Treated 3","cardiac microtissues [1]; gene SLC7A5, Run 1",0.8586
same,"Average 2^-ΔΔCt, Treated","cardiac microtissues [1]; gene SLC7A5, Run 1",0.8821
same,"2^-ΔΔCt of Individual reps, Treated 1","cardiac microtissues [1]; gene SLC7A5, Run 2",0.1881
same,"2^-ΔΔCt of Individual reps, Treated 2","cardiac microtissues [1]; gene SLC7A5, Run 2",0.06312
same,"2^-ΔΔCt of Individual reps, Treated 3","cardiac microtissues [1]; gene SLC7A5, Run 2",0.06588
same,"Average 2^-ΔΔCt, Treated","cardiac microtissues [1]; gene SLC7A5, Run 2",0.1057
same,"2^-ΔΔCt of Individual reps, Treated 1","cardiac microtissues [1]; gene UCHL1, Run 1",0.6206
same,"2^-ΔΔCt of Individual reps, Treated 2","cardiac microtissues [1]; gene UCHL1, Run 1",0.6021
same,"2^-ΔΔCt of Individual reps, Treated 3","cardiac microtissues [1]; gene UCHL1, Run 1",0.5702
same,"Average 2^-ΔΔCt, Treated","cardiac microtissues [1]; gene UCHL1, Run 1",0.5976
same,"2^-ΔΔCt of Individual reps, Treated 1","cardiac microtissues [1]; gene UCHL1, Run 2",0.3214
same,"2^-ΔΔCt of Individual reps, Treated 2","cardiac microtissues [1]; gene UCHL1, Run 2",0.1175
same,"2^-ΔΔCt of Individual reps, Treated 3","cardiac microtissues [1]; gene UCHL1, Run 2",0.1882
same,"Average 2^-ΔΔCt, Treated","cardiac microtissues [1]; gene UCHL1, Run 2",0.209
same,Transcriptomic high concentration (µM) = IC30 of ATP depletion,cardiac microtissues [2],3.53 µM
same,activation Z-score: Actin Cytoskeleton Signaling,cardiac microtissues [3],-3.317
same,activation Z-score: Actin Nucleation by ARP-WASP Complex,cardiac microtissues [3],-2.646
same,activation Z-score: Acute Phase Response Signaling,cardiac microtissues [3],-2.84
same,activation Z-score: Adrenomedullin signaling pathway,cardiac microtissues [3],-2.53
same,activation Z-score: Apelin Cardiac Fibroblast Signaling Pathway,cardiac microtissues [3],2.236
same,activation Z-score: Apelin Liver Signaling Pathway,cardiac microtissues [3],-2.449
same,activation Z-score: Aryl Hydrocarbon Receptor Signaling,cardiac microtissues [3],-0.632
same,activation Z-score: Breast Cancer Regulation by Stathmin1,cardiac microtissues [3],-3
same,activation Z-score: CD40 Signaling,cardiac microtissues [3],-2
same,activation Z-score: CLEAR Signaling Pathway,cardiac microtissues [3],-0.5
same,activation Z-score: Cardiac Hypertrophy Signaling (Enhanced),cardiac microtissues [3],-3.53
same,activation Z-score: Cell Cycle: G2/M DNA Damage Checkpoint Regulation,cardiac microtissues [3],-3
same,activation Z-score: Colorectal Cancer Metastasis Signaling,cardiac microtissues [3],-3.578
same,activation Z-score: Cyclins and Cell Cycle Regulation,cardiac microtissues [3],2.333
same,activation Z-score: ERK5 Signaling,cardiac microtissues [3],-2
same,activation Z-score: Endothelin-1 Signaling,cardiac microtissues [3],-2.496
same,activation Z-score: G-Protein Coupled Receptor Signaling,cardiac microtissues [3],-3.212
same,activation Z-score: GP6 Signaling Pathway,cardiac microtissues [3],-4.123
same,activation Z-score: Glioblastoma Multiforme Signaling,cardiac microtissues [3],-2.333
same,activation Z-score: HGF Signaling,cardiac microtissues [3],-2.333
same,activation Z-score: HIF1Î± Signaling,cardiac microtissues [3],-3.464
same,activation Z-score: HMGB1 Signaling,cardiac microtissues [3],-3.357
same,activation Z-score: Hepatic Fibrosis Signaling Pathway,cardiac microtissues [3],-4.768
same,activation Z-score: IL-6 Signaling,cardiac microtissues [3],-2.309
same,activation Z-score: IL-8 Signaling,cardiac microtissues [3],-3.051
same,activation Z-score: IL-13 Signaling Pathway,cardiac microtissues [3],-2.496
same,activation Z-score: IL-15 Production,cardiac microtissues [3],-2.449
same,activation Z-score: ILK Signaling,cardiac microtissues [3],-3.357
same,activation Z-score: Immunogenic Cell Death Signaling Pathway,cardiac microtissues [3],-2.646
same,activation Z-score: Inhibition of Angiogenesis by TSP1,cardiac microtissues [3],-2
same,activation Z-score: Integrin Signaling,cardiac microtissues [3],-3.606
same,activation Z-score: Intrinsic Prothrombin Activation Pathway,cardiac microtissues [3],-2
same,activation Z-score: Kinetochore Metaphase Signaling Pathway,cardiac microtissues [3],3.266
same,activation Z-score: LXR/RXR Activation,cardiac microtissues [3],0.905
same,activation Z-score: Leukocyte Extravasation Signaling,cardiac microtissues [3],-2.065
same,activation Z-score: MIF Regulation of Innate Immunity,cardiac microtissues [3],-2
same,activation Z-score: MYC Mediated Apoptosis Signaling,cardiac microtissues [3],-1.633
same,activation Z-score: Macrophage Alternative Activation Signaling Pathway,cardiac microtissues [3],-2.558
same,activation Z-score: Oncostatin M Signaling,cardiac microtissues [3],-2.236
same,activation Z-score: Osteoarthritis Pathway,cardiac microtissues [3],-2.711
same,activation Z-score: Oxytocin Signaling Pathway,cardiac microtissues [3],-2.324
same,activation Z-score: PAK Signaling,cardiac microtissues [3],-2.236
same,activation Z-score: PPAR Signaling,cardiac microtissues [3],2.646
same,activation Z-score: Pancreatic Adenocarcinoma Signaling,cardiac microtissues [3],-2.121
same,activation Z-score: Paxillin Signaling,cardiac microtissues [3],-2
same,activation Z-score: Production of Nitric Oxide and Reactive Oxygen Species in Macrophages,cardiac microtissues [3],-3.051
same,activation Z-score: Prostanoid Biosynthesis,cardiac microtissues [3],-2
same,activation Z-score: Pulmonary Fibrosis Idiopathic Signaling Pathway,cardiac microtissues [3],-5.692
same,activation Z-score: Pulmonary Healing Signaling Pathway,cardiac microtissues [3],-2.449
same,activation Z-score: Pyridoxal 5'-phosphate Salvage Pathway,cardiac microtissues [3],1.342
same,activation Z-score: RAC Signaling,cardiac microtissues [3],-1.89
same,activation Z-score: RHOGDI Signaling,cardiac microtissues [3],3.606
same,activation Z-score: Regulation Of The Epithelial Mesenchymal Transition By Growth Factors Pathway,cardiac microtissues [3],-4.243
same,activation Z-score: Regulation of Cellular Mechanics by Calpain Protease,cardiac microtissues [3],-2.236
same,activation Z-score: Regulation of eIF4 and p70S6K Signaling,cardiac microtissues [3],-1.342
same,activation Z-score: Renin-Angiotensin Signaling,cardiac microtissues [3],-2.449
same,activation Z-score: Ribonucleotide Reductase Signaling Pathway,cardiac microtissues [3],-1.291
same,activation Z-score: Role of JAK family kinases in IL-6-type Cytokine Signaling,cardiac microtissues [3],-2.668
same,activation Z-score: Role of NFAT in Cardiac Hypertrophy,cardiac microtissues [3],-3.162
same,activation Z-score: STAT3 Pathway,cardiac microtissues [3],-1.414
same,activation Z-score: Salvage Pathways of Pyrimidine Ribonucleotides,cardiac microtissues [3],1.134
same,activation Z-score: Senescence Pathway,cardiac microtissues [3],-3.3
same,activation Z-score: Signaling by Rho Family GTPases,cardiac microtissues [3],-3.638
same,activation Z-score: TREM1 Signaling,cardiac microtissues [3],-2.646
same,activation Z-score: Type II Diabetes Mellitus Signaling,cardiac microtissues [3],-1.342
same,activation Z-score: White Adipose Tissue Browning Pathway,cardiac microtissues [3],-2.714
same,activation Z-score: Wound Healing Signaling Pathway,cardiac microtissues [3],-4.964
same,activation Z-score: iNOS Signaling,cardiac microtissues [3],-2.236
same,Structural cardiotoxin?,[4]; FDA label references heart failure or a decrease in left ventricular ejection fraction,Y
same,Functional cardiotoxin?,[4]; compound annotation,Y
same,"number of significant differentially expressed genes, 6hr high","cardiac microtissues [5]; 6 hr, high concentration",10
same,"number of significant differentially expressed genes, 6hr low","cardiac microtissues [5]; 6 hr, low concentration",0
same,"number of significant differentially expressed genes, 48hr high","cardiac microtissues [5]; 48 hr, high concentration",861
same,"number of significant differentially expressed genes, 48hr low","cardiac microtissues [5]; 48 hr, low concentration",399
same,"number of significant differentially expressed genes, 72hr high","cardiac microtissues [5]; 72 hr, high concentration",152
same,"number of significant differentially expressed genes, 72hr low","cardiac microtissues [5]; 72 hr, low concentration",71
